Read-outs that look alike come from different tables or passages of the source.
Key:
[1] = target: recombinant human Cathepsin S (Homo sapiens, UniProt P25774); experiment: Cathepsin S in vitro enzymatic assay (fluorogenic substrate); type: biochemical
Procedure: Assay Conditions: Cathepsin S was activated by diluting the concentrated storage stock into the acidic assay buffer for 30 minutes at room temperature. Then, 5 μl of the sample or reference inhibitor was added to 20 μl of enzyme solution and pre-incubated for 30 minutes. The enzymatic reactions were started by the addition of 25 μl of the fluorogenic substrate, for a total reaction volume of 50 μl. Reaction time was 60 minutes, and then fluorescence intensity at an excitation of 360 nm and an emission of 460 nm was read using a Tecan Infinite M1000 microplate reader.
(§1) Data Analysis: Enzyme activity assays were performed in duplicates at each concentration. The fluorescence intensity data were analyzed and compared. In the absence of the compound, the intensity in each data set was defined as 100% (Ce) activity. In the absence of enzyme, the intensity in each data set was defined as 0% (C0) activity. […] Compound fluorescence was removed by subtracting fluorescence at reaction time=0.

recombinant human CD38 = target: T1, recombinant human CD38 (Homo sapiens, UniProt P28907); experiment: CD38 hydrolase in vitro enzymatic assay (ε-NAD+ substrate); type: biochemical
T1 construct: purchased 71277
T1 sequence (P28907 1-300): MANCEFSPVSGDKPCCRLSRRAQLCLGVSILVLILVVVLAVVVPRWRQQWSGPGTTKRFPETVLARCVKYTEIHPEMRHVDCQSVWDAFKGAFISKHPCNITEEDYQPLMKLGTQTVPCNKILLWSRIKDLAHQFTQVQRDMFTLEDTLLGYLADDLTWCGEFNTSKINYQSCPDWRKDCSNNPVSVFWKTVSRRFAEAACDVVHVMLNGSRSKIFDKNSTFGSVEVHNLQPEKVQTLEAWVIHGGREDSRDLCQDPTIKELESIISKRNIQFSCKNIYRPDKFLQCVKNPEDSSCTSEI
From the text: Here, DC-5=Yellow Blend, DC-9=Purple Blend, DC-21-Green Blend, DC-13=Red Blend DCH-TIV 1.0 (Adult Centrum Multivitamins). The red blend included Apple Extract, Pomegranate Extract, Tomato Powder, Beet; the green blend included Olive Extract, Rosemary Extract, Green Coffee Bean Extract, Kale; the orange/yellow blend included Onion Extract, Ginger Extract, Grapefruit Extract, Carrot; and the purple/blue blend included Grape, Blueberry Extract, Currant, and Elderberry as listed above.
Assay Conditions: 10 μl of the sample or reference inhibitor was added to 20 μl of enzyme solution and pre-incubated for 30 minutes. The enzymatic reactions were started by the addition of 20 μl of the substrate ε-NAD+, for a total reaction volume of 50 μl. Reaction time was 10 minutes, and then fluorescence intensity at an excitation of 300 nm and an emission of 410 nm was read using a Tecan Infinite M1000 microplate reader.
as §1

Chain of recombinant human Cathepsin S (P25774 115-331): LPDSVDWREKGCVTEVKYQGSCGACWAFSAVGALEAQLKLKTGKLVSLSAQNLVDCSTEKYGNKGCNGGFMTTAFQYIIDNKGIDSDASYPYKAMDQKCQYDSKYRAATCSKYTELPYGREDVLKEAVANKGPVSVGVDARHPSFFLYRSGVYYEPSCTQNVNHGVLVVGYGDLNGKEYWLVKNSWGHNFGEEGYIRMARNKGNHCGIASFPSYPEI

`CC(C)C[C@H](NC(=O)[C@H]1O[C@@H]1C(=O)O)C(=O)NCCCCN=C(N)N` [E-64] was tested, and the “Activity (%) Repeat 1” value ([1]; 1 nM, Table 35) was 98%, the “Activity (%) Repeat 2” value ([1]; 1 nM, Table 35) was 95% and the “Inhibition (%)” value ([1]; 1 nM, Table 35) was 4%. The “Net Signal (Fluorescence counts) Repeat 1” value ([1]; 1 nM, Table 35) was 9894 Fluorescence counts, the “Net Signal (Fluorescence counts) Repeat 2” value ([1]; 1 nM, Table 35) was 9604 Fluorescence counts and the “Activity (%) Repeat 1” value ([1]; 1 nM, Table 36) was 99%. For the same molecule, the “Activity (%) Repeat 2” value ([1]; 1 nM, Table 36) was 100%, the “Inhibition (%)” value ([1]; 1 nM, Table 36) was 1% and the “Net Signal (Fluorescence counts) Repeat 1” value ([1]; 1 nM, Table 36) was 8864 Fluorescence counts. For the same molecule, the “Net Signal (Fluorescence counts) Repeat 2” value ([1]; 1 nM, Table 36) was 8931 Fluorescence counts, the “Activity (%) Repeat 1” value ([1]; 0.001 μM, Table 37) was 88% and the “Activity (%) Repeat 2” value ([1]; 0.001 μM, Table 37) was 83%. For the same molecule, the “Inhibition (%)” value ([1]; 0.001 μM, Table 37) was 15%, the “Net Signal (Fluorescence counts) Repeat 1” value ([1]; 0.001 μM, Table 37) was 52418 Fluorescence counts and the “Net Signal (Fluorescence counts) Repeat 2” value ([1]; 0.001 μM, Table 37) was 49644 Fluorescence counts. For the same molecule, the “Activity (%) Repeat 1” value ([1]; 10 nM, Table 35) was 51%, the “Activity (%) Repeat 2” value ([1]; 10 nM, Table 35) was 54% and the “Inhibition (%)” value ([1]; 10 nM, Table 35) was 48%. For the same molecule, the “Net Signal (Fluorescence counts) Repeat 1” value ([1]; 10 nM, Table 35) was 5170 Fluorescence counts, the “Net Signal (Fluorescence counts) Repeat 2” value ([1]; 10 nM, Table 35) was 5444 Fluorescence counts and the “Activity (%) Repeat 1” value ([1]; 10 nM, Table 36) was 64%. For the same molecule, the “Activity (%) Repeat 2” value ([1]; 10 nM, Table 36) was 59%, the “Inhibition (%)” value ([1]; 10 nM, Table 36) was 38% and the “Net Signal (Fluorescence counts) Repeat 1” value ([1]; 10 nM, Table 36) was 5727 Fluorescence counts. For the same molecule, the “Net Signal (Fluorescence counts) Repeat 2” value ([1]; 10 nM, Table 36) was 5326 Fluorescence counts, the “Activity (%) Repeat 1” value ([1]; 0.01 μM, Table 37) was 36% and the “Activity (%) Repeat 2” value ([1]; 0.01 μM, Table 37) was 33%. For the same molecule, the “Inhibition (%)” value ([1]; 0.01 μM, Table 37) was 66%, the “Net Signal (Fluorescence counts) Repeat 1” value ([1]; 0.01 μM, Table 37) was 21262 Fluorescence counts and the “Net Signal (Fluorescence counts) Repeat 2” value ([1]; 0.01 μM, Table 37) was 19656 Fluorescence counts. For the same molecule, the “Activity (%) Repeat 1” value ([1]; 0.1 μM, Table 37) was 5%, the “Activity (%) Repeat 2” value ([1]; 0.1 μM, Table 37) was 6% and the “Inhibition (%)” value ([1]; 0.1 μM, Table 37) was 95%. For the same molecule, the “Net Signal (Fluorescence counts) Repeat 1” value ([1]; 0.1 μM, Table 37) was 3091 Fluorescence counts, the “Net Signal (Fluorescence counts) Repeat 2” value ([1]; 0.1 μM, Table 37) was 3478 Fluorescence counts and the “Activity (%) Repeat 1” value ([1]; 100 nM, Table 35) was 9%. For the same molecule, the “Activity (%) Repeat 2” value ([1]; 100 nM, Table 35) was 9%, the “Inhibition (%)” value ([1]; 100 nM, Table 35) was 91% and the “Net Signal (Fluorescence counts) Repeat 1” value ([1]; 100 nM, Table 35) was 958 Fluorescence counts. The “Net Signal (Fluorescence counts) Repeat 2” value ([1]; 100 nM, Table 35) was 960 Fluorescence counts, the “Activity (%) Repeat 1” value ([1]; 100 nM, Table 36) was 11% and the “Activity (%) Repeat 2” value ([1]; 100 nM, Table 36) was 12%. The “Inhibition (%)” value ([1]; 100 nM, Table 36) was 89%, the “Net Signal (Fluorescence counts) Repeat 1” value ([1]; 100 nM, Table 36) was 1009 Fluorescence counts and the “Net Signal (Fluorescence counts) Repeat 2” value ([1]; 100 nM, Table 36) was 1033 Fluorescence counts.
`O=c1cc(-c2ccc(O)cc2)oc2cc(O)cc(O)c12` [Apigenin] was tested, and the “Net Signal (Fluorescence counts) Repeat 1” value (recombinant human CD38; 1 μM, Table 61) was 3461 Fluorescence counts, the “Net Signal (Fluorescence counts) Repeat 2” value (recombinant human CD38; 1 μM, Table 61) was 3761 Fluorescence counts and the inhibition at 1 µM (recombinant human CD38; 1 μM, Table 61) was 14%. For the same molecule, the activity at 1 µM (recombinant human CD38; 1 μM, Table 61, read-out: Activity (%) Repeat 1) was 82%, the activity at 1 µM (recombinant human CD38; 1 μM, Table 61, read-out: Activity (%) Repeat 2) was 89% and the “Net Signal (Fluorescence counts) Repeat 1” value (recombinant human CD38; 1 μM, Table 62) was 8650 Fluorescence counts. For the same molecule, the “Net Signal (Fluorescence counts) Repeat 2” value (recombinant human CD38; 1 μM, Table 62) was 8614 Fluorescence counts, the inhibition at 1 µM (recombinant human CD38; 1 μM, Table 62) was 6% and the activity at 1 µM (recombinant human CD38; 1 μM, Table 62, read-out: Activity (%) Repeat 1) was 94%. For the same molecule, the activity at 1 µM (recombinant human CD38; 1 μM, Table 62, read-out: Activity (%) Repeat 2) was 94%, the “Net Signal (Fluorescence counts) Repeat 1” value (recombinant human CD38; 1 μM, Table 63) was 11531 Fluorescence counts and the “Net Signal (Fluorescence counts) Repeat 2” value (recombinant human CD38; 1 μM, Table 63) was 11647 Fluorescence counts. It also gave an inhibition at 1 µM (recombinant human CD38; 1 μM, Table 63) of 14%, an activity at 1 µM (recombinant human CD38; 1 μM, Table 63, read-out: Activity (%) Repeat 1) of 86% and an activity at 1 µM (recombinant human CD38; 1 μM, Table 63, read-out: Activity (%) Repeat 2) of 86%. The “Net Signal (Fluorescence counts) Repeat 1” value (recombinant human CD38; 1 μM, TABLE 64) was 4138 counts, the “Net Signal (Fluorescence counts) Repeat 2” value (recombinant human CD38; 1 μM, TABLE 64) was 3883 counts and the inhibition at 1 µM (recombinant human CD38; 1 μM, TABLE 64) was 8%. For the same molecule, the activity at 1 µM (recombinant human CD38; 1 μM, TABLE 64, read-out: Activity (%) Repeat 1) was 95%, the activity at 1 µM (recombinant human CD38; 1 μM, TABLE 64, read-out: Activity (%) Repeat 2) was 89% and the “Net Signal (Fluorescence counts) Repeat 1” value (recombinant human CD38; 10 μM, Table 61) was 647 Fluorescence counts. For the same molecule, the “Net Signal (Fluorescence counts) Repeat 2” value (recombinant human CD38; 10 μM, Table 61) was 618 Fluorescence counts, the inhibition at 10 µM (recombinant human CD38; 10 μM, Table 61) was 85% and the activity at 10 µM (recombinant human CD38; 10 μM, Table 61, read-out: Activity (%) Repeat 1) was 15%. The activity at 10 µM (recombinant human CD38; 10 μM, Table 61, read-out: Activity (%) Repeat 2) was 14%, the “Net Signal (Fluorescence counts) Repeat 1” value (recombinant human CD38; 10 μM, Table 62) was 4670 Fluorescence counts and the “Net Signal (Fluorescence counts) Repeat 2” value (recombinant human CD38; 10 μM, Table 62) was 5416 Fluorescence counts. For the same molecule, the inhibition at 10 µM (recombinant human CD38; 10 μM, Table 62) was 45%, the activity at 10 µM (recombinant human CD38; 10 μM, Table 62, read-out: Activity (%) Repeat 1) was 51% and the activity at 10 µM (recombinant human CD38; 10 μM, Table 62, read-out: Activity (%) Repeat 2) was 59%. The “Net Signal (Fluorescence counts) Repeat 1” value (recombinant human CD38; 10 μM, Table 63) was 7118 Fluorescence counts, the “Net Signal (Fluorescence counts) Repeat 2” value (recombinant human CD38; 10 μM, Table 63) was 7228 Fluorescence counts and the inhibition at 10 µM (recombinant human CD38; 10 μM, Table 63) was 47%. For the same molecule, the activity at 10 µM (recombinant human CD38; 10 μM, Table 63, read-out: Activity (%) Repeat 1) was 53%, the activity at 10 µM (recombinant human CD38; 10 μM, Table 63, read-out: Activity (%) Repeat 2) was 54% and the “Net Signal (Fluorescence counts) Repeat 1” value (recombinant human CD38; 10 μM, TABLE 64) was 3091 counts. For the same molecule, the “Net Signal (Fluorescence counts) Repeat 2” value (recombinant human CD38; 10 μM, TABLE 64) was 3057 counts, the inhibition at 10 µM (recombinant human CD38; 10 μM, TABLE 64) was 30% and the activity at 10 µM (recombinant human CD38; 10 μM, TABLE 64, read-out: Activity (%) Repeat 1) was 70%. The activity at 10 µM (recombinant human CD38; 10 μM, TABLE 64, read-out: Activity (%) Repeat 2) was 70%, the “Net Signal (Fluorescence counts) Repeat 1” value (recombinant human CD38; 100 μM, Table 61) was 185 Fluorescence counts and the “Net Signal (Fluorescence counts) Repeat 2” value (recombinant human CD38; 100 μM, Table 61) was 135 Fluorescence counts. The inhibition at 100 µM (recombinant human CD38; 100 μM, Table 61) was 96%, the activity at 100 µM (recombinant human CD38; 100 μM, Table 61, read-out: Activity (%) Repeat 1) was 4% and the activity at 100 µM (recombinant human CD38; 100 μM, Table 61, read-out: Activity (%) Repeat 2) was 3%. The “Net Signal (Fluorescence counts) Repeat 1” value (recombinant human CD38; 100 μM, Table 62) was 1979 Fluorescence counts, the “Net Signal (Fluorescence counts) Repeat 2” value (recombinant human CD38; 100 μM, Table 62) was 2165 Fluorescence counts and the inhibition at 100 µM (recombinant human CD38; 100 μM, Table 62) was 78%. For the same molecule, the activity at 100 µM (recombinant human CD38; 100 μM, Table 62, read-out: Activity (%) Repeat 1) was 21%, the activity at 100 µM (recombinant human CD38; 100 μM, Table 62, read-out: Activity (%) Repeat 2) was 23% and the “Net Signal (Fluorescence counts) Repeat 1” value (recombinant human CD38; 100 μM, Table 63) was 5012 Fluorescence counts. For the same molecule, the “Net Signal (Fluorescence counts) Repeat 2” value (recombinant human CD38; 100 μM, Table 63) was 5473 Fluorescence counts, the inhibition at 100 µM (recombinant human CD38; 100 μM, Table 63) was 61% and the activity at 100 µM (recombinant human CD38; 100 μM, Table 63, read-out: Activity (%) Repeat 1) was 37%. For the same molecule, the activity at 100 µM (recombinant human CD38; 100 μM, Table 63, read-out: Activity (%) Repeat 2) was 40%, the “Net Signal (Fluorescence counts) Repeat 1” value (recombinant human CD38; 100 μM, TABLE 64) was 632 counts and the “Net Signal (Fluorescence counts) Repeat 2” value (recombinant human CD38; 100 μM, TABLE 64) was 728 counts. The inhibition at 100 µM (recombinant human CD38; 100 μM, TABLE 64) was 85%, the activity at 100 µM (recombinant human CD38; 100 μM, TABLE 64, read-out: Activity (%) Repeat 1) was 14% and the activity at 100 µM (recombinant human CD38; 100 μM, TABLE 64, read-out: Activity (%) Repeat 2) was 16%.

From patent US11752188B2, “Compositions and methods for nutritional supplements” (DailyColors Health Inc., priority 2020, dated 2023)
